Measured values published in US20220323400A1, “INHIBITORS OF SGLT AND USES THEREOF” (The Regents of the University of Michigan, priority 2019, published 2022).

Tests used:
[1] = system: CF rabbits; assay type: in vivo, rabbit
Method: (§1) ) has beneficial effects on treating CF, 5 CF rabbits were daily gavaged with LX4211 (15 mg/kg/day) for 4 weeks. The intravenous glucose tolerance test (IVGTT) and insulin tolerance test (ITT) were performed before treatment and at 4 weeks after treatment. Urine was collected daily to assess urinary glucose excretion. Blood was collected biweekly for the analysis of chemical panels including glucose, insulin, liver function, kidney function, lipid profiles and electrolytes. At the end of the experiment, the organ tissues of CF rabbits were collected for histology staining.
Because most CF rabbits eventually die of gut obstruction for which abdominal hardening (which can be felt by palpation) has been used as a clinical sign, such softening may indicate beneficial effects on alleviating GI obstruction, although further studies are needed to confirm this predication.

[2] = system: CF rabbits; assay: IVGTT in CF rabbits prior to and after Sota treatment; assay type: in vivo, rabbit; details: CF rabbits (n=6), 15 mg/kg/day daily gavage 4 weeks, vs non-treatment, FIGS. 10B & C
Method: Experiments were conducted that next proceeded to treat CF rabbits (n=6) with Sota (15 mg/kg/day) by daily gavage for 4 weeks (FIG. 10A). The IVGTT test was performed prior to and 4 weeks after treatment.

[3] = system: CF rabbits; assay: Blood chemistry of CF rabbits treated with Sota for 10 weeks; assay type: in vivo, rabbit; details: 5 CF rabbits treated 10 weeks vs untreated control group, FIG. 11
Text: It is known that many CF patients show abnormalities in their blood chemistry tests. Blood chemistry in CF rabbits was also examind. In one study, blood was collected from 5 CF rabbits for the analysis of chemical panels including electrolytes, glucose and other metabolic parameters, and compared with those of WT rabbits (n=15). CF rabbits presented many abnormalities in metabolic parameters including lower serum potassium (WT 4.35±0.25 vs. CF 3.14±0.3, p<0.05), higher triglyceride (WT 75.8±69.5 vs. CF 447.0±76.6, p<0.05), cholesterol (WT 31.6±9.76 vs. CF 177.2±206.3, p<0.05) and glucose (WT 110.4±9.99 vs. CF 160.6±37.5, p<0.05). Abnormalities of serum ALP, CPK and Calcium were also detected in CF rabbits.
To evaluate if Sota has any effects on the blood chemistry parameters of CF rabbits, experiments were conducted wherein 5 CF rabbits were treated with Sota for 10 weeks.

[4] = system: CF rabbits; assay: Intravenous glucose tolerance test (IVGTT) in CF rabbits treated with LX4211; assay type: in vivo, rabbit; details: FIG. 1
Method: as §1

[5] = system: CF rabbits; assay: Urinary glucose excretion in CF rabbits treated with LX4211; assay type: in vivo, rabbit; details: 15 mg/kg/day daily gavage
Method: as §1

[6] = system: CF rabbits; assay: Blood chemical panels in CF rabbits treated with LX4211; assay type: in vivo, rabbit
Method: as §1
Abnormalities of serum ALP, CPK and Calcium were also detected in CF rabbits.

[7] = system: CF rabbits; assay: Lifespan (survival curve) of Sota-treated CF rabbits; assay type: in vivo, rabbit; details: treatment starting on Day 49 of age
Text: This is further supported by the elongated lifespan of Sota-treated CF rabbits. […] These findings indicate that contrary to the beliefs by many, the SGLT inhibitor drugs are indicative of bringing benefits with minimal risks to CF patients.

[8] = system: CF rabbits; assay: Survival length of CF rabbits treated with LX4211; assay type: in vivo, rabbit; details: FIG. 3
[9] = rabbit, in vivo
[10] = system: WT rabbits; assay: Urine sugar levels in WT rabbits after Sota treatment; assay type: in vivo, rabbit; details: WT rabbits (n=2)
Method: Experiments were conducted that first examined the physiological responses of rabbits to Sota by measuring the urine sugar levels to assess urinary glucose excretion (FIG. 9). Sota was given to WT rabbits (n=2) daily for five days. […] This confirmed that rabbits respond to Sota similarly as rodents and human patients.

## Sotagliflozin [LX4211]
[1]; CF rabbits, 15 mg/kg/day daily gavage, abdominal hardening is a clinical sign of gut obstruction
  daily abdominal palpation: softening of the abdominal
[1]; rabbit, in vivo, 15 mg/kg/day
  adverse response to treatment: no obvious adverse response
[2]
  blood glucose elimination rate (IVGTT): significantly higher
[3]
  ALP: significantly improved
  CPK: significantly improved
  Chol: significantly improved
  Glucose: significantly improved
  K+: significantly improved
  Trig: significantly improved
[4]; CF rabbits, 15 mg/kg/day, before vs 4 weeks after treatment
  glucose tolerance: restored glucose tolerance
[4]; one CF rabbit, prior to vs after treatment
  GTT response of one CF rabbit with signs of CF related diabetes (CFRD): restored to normal
[5]
  urine glucose levels: spiked starting D1 after the treatment
[6]; 15 mg/kg/day, FIG. 4
  CPK: significant rescue effects
  Calcium: significant rescue effects
  cholesterol: significant rescue effects
  triglyceride: significant rescue effects
[6]; 15 mg/kg/day, FIG. 4, FIG. 5
  hyperglycemia (glucose): significantly attenuated
  hypokalemia (serum potassium): significantly attenuated
[6]; FIG. 6
  ALB (Albumin): restored
  TPRO (Total Protein): restored
[7]; CF rabbits (n=10), FIG. 12 right panel
  median lifespan: > 150 days
[7]; of n=10 CF rabbits
  number of treated CF rabbits that lived beyond 150 days: 6
[8]
  survival length: improved survival length
[9]
  weight gain: gained weight at a similar rate
[10]; D7, FIG. 9
  urine sugar level upon retrieval of the drug: immediately returned to normal
[10]; daily for five days, D1-D5, FIG. 9
  urine sugar level during treatment: spike of urine sugar level was seen the second day (D1) and remained high during the treatment days
